Where “and” joins values, the source holds several entries; their conditions need not be identical. Equal entries are not always repeated. After the bases stand the sugars from the 5' end (letter, count) and the backbone: PS all phosphorothioate, else s phosphorothioate and o phosphodiester by linkage. Methylation of C is not given here. e = 2'-O-(2-methoxyethyl) (MOE); k = constrained ethyl (cEt); d = 2'-deoxy (DNA)
Target: IRF4
Conditions: ASO

TGTAGTATGAGAAACG (sugars kkdddddddddekeke, PS)
target mRNA inhibition (MM.1R, 1 µM): 13%

AGATGTAAAGATAGGA (sugars k3 d10 k3, PS)
target mRNA inhibition (SK-MEL-28, 4 µM): 54%

GGCTAGCTGTATTTAT (sugars k3 d10 k3, PS)
target mRNA inhibition (SK-MEL-28, 4 µM): 37%

GCAGTTCTTAATATCA (sugars k3 d10 k3, PS)
target mRNA inhibition (SK-MEL-28, 4 µM): 60%

AACCAGCCCTTGCTGC (sugars k3 d10 k3, PS)
target mRNA inhibition (SK-MEL-28, 4 µM): 21%

CGCCAGCCAGATGTTT (sugars k3 d10 k3, PS)
target mRNA inhibition (MM.1R, 1 µM): -15%

GAGCGAAGGGTAAGGC (sugars k3 d10 k3, PS)
target mRNA inhibition (SK-MEL-28, 4 µM): 38%

TTCCATGCTTGTCTCG (sugars k3 d10 k3, PS)
target mRNA inhibition (SK-MEL-28, 4 µM): 62%

TTAGACTGACAGCCGA (sugars k3 d10 k3, PS)
target mRNA inhibition (SK-MEL-28, 4 µM): 53%

GACACTTTTAGAGAGG (sugars k3 d10 k3, PS)
target mRNA inhibition (SK-MEL-28, 4 µM): 87% and 78%

GACTTCGGGAGATACG (sugars k3 d10 k3, PS)
target mRNA inhibition (SK-MEL-28, 4 µM): 14%

CTGGGTTTTCTGTAGG (sugars k3 d10 k3, PS)
target mRNA inhibition (SK-MEL-28, 4 µM): 48%

AACTGGATTGATGTGA (sugars k3 d10 k3, PS)
target mRNA inhibition (SK-MEL-28, 4 µM): 77%

TTAACCAATCCCAACA (sugars k3 d10 k3, PS)
target mRNA inhibition (SK-MEL-28, 4 µM): 30%

GCTCATTTCACTGTAG (sugars k3 d10 k3, PS)
target mRNA inhibition (SK-MEL-28, 4 µM): 64%

GCCAATGCAACTGAAT (sugars k3 d10 k3, PS)
target mRNA inhibition (SK-MEL-28, 4 µM): 36%

AGACATTACTAGATTG (sugars k3 d10 k3, PS)
target mRNA inhibition (SK-MEL-28, 4 µM): 66%

ACTAGCAGGGCACGCT (sugars k3 d10 k3, PS)
target mRNA inhibition (SK-MEL-28, 4 µM): 38%

CATGATAAGGCACTAC (sugars k3 d10 k3, PS)
target mRNA inhibition (MM.1R, 1 µM): -6%

GGCTCCCTCAGGAACA (sugars k3 d10 k3, PS)
target mRNA inhibition (SK-MEL-28, 4 µM): 19%

ATACATTGAGGCATAC (sugars k3 d10 k3, PS)
target mRNA inhibition (MM.1R, 1 µM): 2%

AACAAAAGGTTCCCGC (sugars k3 d10 k3, PS)
target mRNA inhibition (SK-MEL-28, 4 µM): 40%

CATTGAGGCATACAGT (sugars k3 d10 k3, PS)
target mRNA inhibition (SK-MEL-28, 4 µM): 55%

AGCCGCCGGCACAGGC (sugars k3 d10 k3, PS)
target mRNA inhibition (SK-MEL-28, 4 µM): 1%

AGTGTTCCAGGAGATA (sugars k3 d10 k3, PS)
target mRNA inhibition (MM.1R, 0.0625 µM): 43% | target mRNA inhibition (MM.1R, 0.25 µM): 59% | target mRNA inhibition (MM.1R, 1 µM): 80% and 72% | target mRNA inhibition (MM.1R, 4 µM): 84%

ACTTACAGGACTATTT (sugars k3 d10 k3, PS)
target mRNA inhibition (SK-MEL-28, 4 µM): 16%

AGCTTGATAAAGGCTG (sugars kkddddddddddkeke, PS)
target mRNA inhibition (MM.1R, 1 µM): 1%

GTAATCTTCTGGATTG (sugars k3 d10 k3, PS)
target mRNA inhibition (SK-MEL-28, 4 µM): 29%

GGTTTCAGTTGTAAAT (sugars k3 d10 k3, PS)
target mRNA inhibition (SK-MEL-28, 4 µM): 58%

CATCTAATCCACAATC (sugars k3 d10 k3, PS)
target mRNA inhibition (MM.1R, 1 µM): -19%

CACCATGGCACAGTCT (sugars k3 d10 k3, PS)
target mRNA inhibition (SK-MEL-28, 4 µM): 79%

TCCTAGGTTTCAGTTG (sugars k3 d10 k3, PS)
target mRNA inhibition (SK-MEL-28, 4 µM): 48%

GGTTGGCTGGTCTTTG (sugars k3 d10 k3, PS)
target mRNA inhibition (MM.1R, 0.0625 µM): -2% and 15% | target mRNA inhibition (MM.1R, 0.25 µM): 16% and 20% | target mRNA inhibition (MM.1R, 1 µM): 49% and 35% | target mRNA inhibition (MM.1R, 4 µM): 66% and 70%

ACGTGTGCTTGCCAAG (sugars kkdddddddddkekek, PS)
target mRNA inhibition (MM.1R, 1 µM): 49% and 44%

TTATATACTGGTTGGT (sugars kkdddddddddekeke, PS)
target mRNA inhibition (MM.1R, 1 µM): 64%

AAGGAGGTAGTGGCCC (sugars k3 d10 k3, PS)
target mRNA inhibition (SK-MEL-28, 4 µM): 47%

CAATGGAGATACTTGT (sugars k3 d10 k3, PS)
target mRNA inhibition (MM.1R, 1 µM): -16%

GGGCCCCGTGAAACAG (sugars k3 d10 k3, PS)
target mRNA inhibition (SK-MEL-28, 4 µM): 33%

CAAGTGTCTTCCACAA (sugars k3 d10 k3, PS)
target mRNA inhibition (SK-MEL-28, 4 µM): 65%

CAGTAAGAGGGCAGTC (sugars k3 d10 k3, PS)
target mRNA inhibition (SK-MEL-28, 4 µM): 50%

AAGCAAGTCGGTCCAC (sugars k3 d10 k3, PS)
target mRNA inhibition (SK-MEL-28, 4 µM): 32%

ATCAAGTAAAGTGATC (sugars k3 d10 k3, PS)
target mRNA inhibition (SK-MEL-28, 4 µM): 29%

GGCTAGCAGAGGTTCT (sugars k3 d10 k3, PS)
target mRNA inhibition (SK-MEL-28, 4 µM): 51%

ACTGGATATGTGGTGT (sugars k3 d10 k3, PS)
target mRNA inhibition (MM.1R, 1 µM): 10%

TGCTTGAATTCCTTGA (sugars k3 d10 k3, PS)
target mRNA inhibition (MM.1R, 0.0625 µM): -6% and -14% | target mRNA inhibition (MM.1R, 0.074 µM): 13% | target mRNA inhibition (MM.1R, 0.222 µM): 12% | target mRNA inhibition (MM.1R, 0.25 µM): 1% and -8% | target mRNA inhibition (MM.1R, 0.666 µM): 23% | target mRNA inhibition (MM.1R, 1 µM): 23% and 25% | target mRNA inhibition (MM.1R, 2 µM): 39% | target mRNA inhibition (MM.1R, 4 µM): 53% and 68% | target mRNA inhibition (SK-MEL-28, 4 µM): 67%

TGTCAAACCCTACTGG (sugars k3 d10 k3, PS)
target mRNA inhibition (SK-MEL-28, 4 µM): 23%

CTCTCCAGGTGGCTCA (sugars k3 d10 k3, PS)
target mRNA inhibition (SK-MEL-28, 4 µM): 13%

CGCAATTCTCCTCAAC (sugars k3 d10 k3, PS)
target mRNA inhibition (SK-MEL-28, 4 µM): 38%

TTGATAAAGGCTGAAC (sugars k3 d10 k3, PS)
target mRNA inhibition (SK-MEL-28, 4 µM): 67%

TTATTAAGTCAATCAC (sugars k3 d10 k3, PS)
target mRNA inhibition (SK-MEL-28, 4 µM): -1%

GCAGAACGAGGTAAAT (sugars k3 d10 k3, PS)
target mRNA inhibition (SK-MEL-28, 4 µM): 62%

From the OligoGym collection
